Source: patent US12441693B2, “Targeting STAT sumoylation to enhance immune responses” (THE GEORGE WASHINGTON UNIVERSITY, priority 2018, dated 2025)
“Also recorded” adds a separate entry of the source.

How the values were obtained:
[1] = test system: STAT1, STAT2, STAT3, STAT4, STAT5A, STAT5B, STAT6; assay: Western blot of STAT phosphorylation in 293FT HEK cells transfected with V5-tagged STATs; assay type: cell-based; conditions: 24 hours, vs DMSO
Procedure: (§1) In general, samples are prepared and loaded on to a gel and during the electrophoresis the negatively charged proteins move toward the positively charged anode. In order to further analyze the proteins, they are transferred onto a membrane in a procedure called blotting. After the transfer, the membrane is blocked in order to prevent unwanted membrane-protein interaction in the following steps. To visualize the protein of interest the membrane is commonly first probed using a primary protein-specific antibody followed by a labeled secondary antibody used for detection. An image is taken of the membrane and the result is analyzed.

[2] = test system: Interferon Stimulated Genes (ISGs); assay: RNASeq of primary CD4 T cells; assay type: cell-based, human; conditions: IL-2 and HODHBt vs IL-2 and DMSO
Procedure: RNASeq was performed in primary CD4 T cells treated with HODHBt following the method of Bosque et al., CELL REP. 2017; 18(5):1324-1334, the disclosure of which is hereby incorporated by reference in its entirety.
Total RNA was extracted from cells using Trizol (Invitrogen 15596), polyadenylated RNA was enriched using NEXTflex Poly(A) Beads (Bioo Scientific 512980), and stranded libraries were prepared using a NEXTflex Rapid Directional qRNA-Seq Kit (Bioo Scientific 5130-02D). Sequencing was performed by the Iowa Institute of Human Genetics Genomics Division on an Illumina HiSeq 2500 using 125 base pair (bp) paired-end reads. Raw paired sequences were first trimmed to remove Illumina sequencing adapters and Bioo Scientific randomized 8-mer molecular indexes using Trim Galore! […] For RNA-Seq tracks, reads were then compiled using the genomecov (-split) function of bedtools 2.25.0, normalized by dividing the number of hg19-mapped reads within each sample by the average number of hg19-mapped reads across all nine samples, combined across donors, and visualized on the UCSC Genome Browser. For differential expression analysis, reads were counted over UCSC hg19 genes (26,364 entries) using the featureCounts (-p -B -C -M) function of Subread 1.5.0 (Liao et al., 2014). […]

CD4 T cells = assay: Expansion of activated CD4 T cells with IL-2; assay type: cell-based, human; conditions: activated in vitro, IL-2, vs DMSO
CD8 T cells = assay: Expansion of polyclonally activated CD8 T cells with IL-2; assay type: cell-based, human; conditions: IL-2, vs DMSO/untreated
Procedure: For these tests, human CD4 and CD8 T cells were activated in vitro and expanded with interleukin-2 (IL-2) in the presence of DMSO (control vehicle) or HODHBt. […] Some immunotherapy strategies rely on the in vitro expansion of the own patient CD4 and CD8 T cells specific against a tumoral or a viral antigen.
(§2) To address whether SUMOylation controls STAT activation in human CD8 T cells, polyclonally activated CD8 T cells were cultured with IL-2 in the presence or absence of HODHBt and levels of phosphorylated STATs were measured by Western blot. […] Proliferation of CD8 T cells is dependent on the activation and phosphorylation of STAT5.

[3] = test system: polyclonally activated CD4 T cells (TCM) killed by CD8 T cells
From the text: An in vitro model to assess the cytolytic potential of human polyclonally activated CD8 T cells was developed. This model relied on the concept of a mix-lymphocyte reaction (MLR) in which CD8 T cells recognize CD4 T cells from a different donor as foreign and induced their killing (FIG. 11A). In this model, polyclonally activated CD8 T cells were co-cultured with polyclonally activated CD4 T cells from a different donor at an effector:target ratio (E:T) of 1:1. Cell death in both CD4 and CD8 subsets was measured at different time points using a fixable viability dye.
To test this hypothesis, polyclonally activated CD8 T cells were co-cultured with polyclonally activated CD4 T cells from a different donor to resemble a mixed-lymphocyte reaction (MLR) at an effector:target ratio (E:T) 1:1 (FIG. 15A). CD4 T cells were activated in conditions that generate central memory CD4 T cells (TCM) cells. CD4 TCM are more resistant to apoptosis than other subsets of CD4 T cells. Cell death in both CD4 and CD8 subsets was measured at 72 hours using a fixable viability dye. Specifically, polyclonally activated CD4 T cells and CD8 T cells were co-cultured and cell death was measured at 72 hours. […] Using this assay, it was tested whether HODHBt increased the cytolytic capacity of CD8 T cells in two experimental set ups.

STAT5, STAT1, STAT3 [4] = assay: Western blot of phosphorylated STATs in CD8 T cells; assay type: cell-based, human
Procedure: as §2, §1

Granzyme B, TRAIL = assay: Expression of cytotoxic molecules (Gzm B, TRAIL) in CD8 and CD4 T cells; assay type: cell-based, human
STAT5, STAT1, STAT3 [5] = assay: Western blot of phosphorylated STATs in NK cells; assay type: cell-based, human
Procedure: Next, NK cells were cultured with IL-15 in the presence or absence of HODHBt and levels of phosphorylated STATs were measured by Western blot.
as §1

`O=c1c2ccccc2nnn1O` [HODHBt] was tested, and the “phosphorylation levels of STATs” value [1] was “increased phosphorylation levels of all the other STATs”, the “expression of Interferon Stimulated Genes (RNASeq)” value [2] was “induction of several Interferon Stimulated Genes” and the “expansion of CD4 T cells” value (CD4 T cells) was “increased expansion”. The “expansion of CD8 T cells” value (CD8 T cells) was “increased expansion; also recorded: enhanced the expansion of polyclonally activated CD8 T in 5 human donors”, the “killing capacity of CD8 T cells expanded in the presence of compound” value ([3]; CD8 T cells expanded in the presence of HODHBt) was “higher killing capacity” and the “killing capacity of CD8 T cells over TCM cells” value ([3]; HODHBt added during the MLR reaction, 72 hours) was “increased the killing capacity of CD8 T cells over TCM cells in a dose dependent manner”. For the same molecule, the “CD8 T cell death in co-culture” value ([3]; human) was “no increase in cell death in CD8 T cells in any of the experimental conditions”, the “toxicity on CD8 T cells” value ([3]; human, 72 h) was “no overt toxicity on CD8 T cells” and the “CD4 T cell death in co-culture with CD8 T cells” value ([3]; time course, fixable viability dye) was “detected only in the co-culture treated with HODHBt at 72 hours and 96 hours”. The “phosphorylation of STAT1 and STAT3 in CD8 T cells” value (STAT5, STAT1, STAT3 [4]; HODHBt alone) was “increased the phosphorylation levels of both STAT1 and STAT3”, the “phosphorylation of STAT5 in CD8 T cells” value (STAT5, STAT1, STAT3 [4]; after IL-2 treatment) was “increased the levels of phosphorylation of STAT5 after IL-2 treatment” and the “phosphorylation of STAT1 and STAT3 in CD8 T cells” value (STAT5, STAT1, STAT3 [4]; with IL-2, vs IL-2) was “enhanced those induced by IL-2”. For the same molecule, the “levels of Gzm B in CD8 T cells” value (Granzyme B, TRAIL) was “increased the levels of Gzm B in CD8 T cells”, the “expression of Granzyme B in activated CD8 T cells” value (Granzyme B, TRAIL; cultured for three days) was “increased the levels of expression” and the “expression of TRAIL in activated CD8 T cells” value (Granzyme B, TRAIL; cultured for three days) was “increased the levels of expression”. The “phosphorylation of STAT1 in NK cells” value (STAT5, STAT1, STAT3 [5]; HODHBt alone) was “increased the phosphorylation levels of STAT1”, the “phosphorylation of STAT5 in NK cells” value (STAT5, STAT1, STAT3 [5]; after IL-15 treatment) was “increased the levels of phosphorylation of STAT5 after IL-15 treatment” and the “phosphorylation of STAT1 and STAT3 in NK cells” value (STAT5, STAT1, STAT3 [5]; with IL-15, vs IL-15) was “enhanced the levels of phosphorylation of STAT1 and STAT3 induced by IL-15”.
